The values that follow come from patent publication US20220381657A1, “METHOD FOR PREPARING BIOLOGICAL MATERIAL HAVING EXCELLENT LIGHT-TRANSMITTING PROPERTY” (RIKEN, priority 2016, published 2022).

SMILES strings stand for the structures. Like-named read-outs stand apart in the source and are kept apart here.

Series [1] in a line: 1st RI evaluation assay: refractive index at 589 nm of 10 wt % aqueous solution. The note with it: Table 3. Format: physicochemical. The source says:
The refractive index of an aqueous solution is commonly known to increase in a solute concentration-dependent manner, and the refractive index of a reagent per unit weight of the reagent varies among individual reagents. Accordingly, two properties are required in order to prepare a high refractive index aqueous solution: (1) an extremely high water-solubility and (2) a […] which allows achieving a high refractive index in a low-concentration aqueous solution.

Experiment in series [2]: not given
This is another data set of the same source.

The next series has as its system mouse spleen. The series is described as follows: Decoloring of mouse spleen (OD420 of supernatant, transmissive image). The note with it: 10 wt % solution, 37° C. overnight.
A further series concerns bovine coagulated blood. Nature of the series: Decoloring screening: heme eluted from bovine coagulated blood (OD420-OD700). To be noted: decolorization.
For a further series, the system named is Serius. The note with it: relative fluorescence.
Another series addresses EGFP (Aequorea victoria, UniProt P42212, F64L/H231L/S65T). Format: biochemical. To be noted: stated in the description. How it is done:
(FIG. 7). […] A mouse hemisphere was treated with use of each 10 wt % chemical solution at 37° C. for 3 days, and was washed with PBS. Subsequently, the mouse hemisphere was subjected to refractive index adjustment with CUBIC-2A.

The next series has as its system mouse brain. Nature of the series: Swelling and clearing of delipidated mouse brain. The note with it: CUBIC-1 delipidated brain, shaken 3 days.

Turning to `CNC(=S)NC` [#0637, 1,3-Dimethyl-thiourea], the “1st RI evaluation assay RI of 10% chemical” value in series [1] was determined as 1.3555. Under “Table 3”, this compound showed an OD400 of 0.049. The compound also had a pH in series [2] (Table 3) of 6.8.
Regarding `CCn1ccnc1` [#0938, 1-ethylimidazole], the “mouse spleen decoloring activity” value in the series on mouse spleen was “highest”. Moreover, the “700 nm calibrated 420 nm Average” value in the series with bovine coagulated blood (OD420 calibrated by OD700) came to 6.19. Besides, in the series with bovine coagulated blood (integrated absorbance 500-700 nm), the “integrated value 500-700 nm Average” value amounted to 3.41. Where the note is “OD at 400 nm of the chemical”, this compound gave a 400 nm of 0.053. Also, the “Fluorescence quench Average” value in the series on Serius was 0.80. At EGFP, the “retention of fluorescence of a fluorescent protein” value is “allows fluorescence of a fluorescent protein to be retained”. Further, in series [2] ([…]), the pH worked out at 12.1.
On to `c1c[nH]cn1` [#1352, imidazole], for which the “swelling of delipidated mouse brain” value in the series with mouse brain is listed as “high-degree of swelling”.
